# Several values for one entry are separate records, joined by “and”; a condition that tells them apart may be missing. Equal entries are not always repeated. ± gives the expanded uncertainty stated by the source.
# Details: 293.15 K; 101.33 kPa; Liquid; Vibrating wire viscometry
structure (smiles),measurement,value
O [water],viscosity,1.002 ± 0.0087 mPa·s and 1.005 ± 0.0087 mPa·s and 0.9992 ± 0.0087 mPa·s

# From the NIST ThermoML archive (doi:10.1021/je100990n)
